Among the data in patent publication US20160296529A1, “AMINOTRIAZOLOPYRIDINE FOR USE IN THE TREATMENT OF INFLAMMATION, AND PHARMACEUTICAL COMPOSITIONS THEREOF” (priority 2012, published 2016) are IC50 values, retold here.

Experiment [1] has as its system GM-CSF-induced STAT5 phosphorylation (JAK2-dependent pathway). The experiment can be described thus: Human whole blood assay (hWBA), GM-CSF stimulation, phospho-STAT5 on CD33+ cells. The class given is cell-based. Conditions: 7 different donors. The protocol:
A flow cytometry analysis was performed to establish JAK1 over JAK2 compound selectivity ex vivo using human whole blood. Therefore, blood is taken from human volunteers who gave informed consent. Blood is then equilibrated for 30 min at 37° C. under gentle rocking, then aliquoted in Eppendorf tubes. Compound is added at different concentrations and incubated at 37° C. for 30 min under gentle rocking and subsequently stimulated for 20 min at 37° C. under gentle rocking with interleukin 6 (IL-6) for JAK1-dependent pathway stimulation or GM-CSF for JAK2-dependent pathway stimulation. Phospho-STAT1 and phospho-STAT5 are then evaluated using FACS analysis. […]
Cells were then washed once with 1×PBS and analyzed on a FACSCanto II flow cytometer (BD Biosciences).
50,000 total events were counted and Phospho-STAT5 positive cells were measured after gating on CD33^+ cells. Data were analyzed using the FACSDiva software and correspond to the percentage of inhibition of GM-CSF stimulation calculated from the percentage of positive cells for phosphor-STAT5 on CD33^+ cells.
A flow cytometry analysis was performed to establish JAK1 over JAK2 compound selectivity ex vivo using human whole blood. […] Phospho-STAT1 (for IL-6- and IFNα-stimulated cells) and phospho-STAT5 (for IL-2- and GM-CSF-stimulated cells) levels are then evaluated using FACS analysis. […]

Experiment [2] has as its target T1, Recombinant human TYK2 catalytic domain (Homo sapiens, UniProt P29597).
T1 construct: amino acids 871-1187; catalog number 08-147; GST; purchased Carna Biosciences 08-147
T1 sequence (P29597 871-1187): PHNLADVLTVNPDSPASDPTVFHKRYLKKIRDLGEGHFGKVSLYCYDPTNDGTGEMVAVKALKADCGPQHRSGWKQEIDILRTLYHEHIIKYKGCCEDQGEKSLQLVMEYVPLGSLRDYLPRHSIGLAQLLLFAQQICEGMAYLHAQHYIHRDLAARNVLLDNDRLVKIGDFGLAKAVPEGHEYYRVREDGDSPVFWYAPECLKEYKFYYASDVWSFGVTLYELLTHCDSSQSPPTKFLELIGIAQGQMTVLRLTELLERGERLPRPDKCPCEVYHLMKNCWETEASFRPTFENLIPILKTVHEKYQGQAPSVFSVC
The experiment is described as follows: TYK2 inhibition assay. The class given is biochemical. The protocol:
Recombinant human TYK2 catalytic domain (amino acids 871-1187; catalog number 08-147) was purchased from Carna biosciences. 4 ng of TYK2 was incubated with 12.5 μg polyGT substrate (Sigma catalog number P0275) in kinase reaction buffer (25 mM Hepes pH 7.2, 50 mM NaCl, 0.5 mM EDTA, 1 mM DTT, 5 mM MnCl2, 10 mM MgCl2, 0.1% Brij-35, 0.1 μM non-radioactive ATP, 0.125 μCi ^33P-gamma-ATP (Perkin Elmer, catalog number NEG602K001MC) final concentrations) with or without 5 μL containing test compound or vehicle (DMSO, 1% final concentration), in a total volume of 25 μL, in a polypropylene 96-well plate (Greiner, V-bottom). After 90 min at 30° C., reactions were stopped by adding 25 μL/well of 150 mM phosphoric acid. […] 40 μL/well of Microscint-20 was added, the top of the plates was sealed and readout was performed using the Topcount (Perkin Elmer). Kinase activity was calculated by subtracting counts per min (cpm) obtained in the presence of a positive control inhibitor (10 μM staurosporine) from cpm obtained in the presence of vehicle. The ability of a test compound to inhibit this activity was determined as:
Percentage inhibition−((cpm determined for sample with test compound present−cpm determined for sample with positive control inhibitor) divided by (cpm determined in the presence of vehicle−cpm determined for sample with positive control inhibitor))*100. […]

“And” between values parts separate entries of the source, which are not always exact repeats. Equal values may be shown once. Read-outs that look alike come from different tables or passages of the source.

Take `Nc1nc2cccc(-c3ccc(CN4CCS(=O)(=O)CC4)cc3)n2n1` [Formula I, 5-[4-(1,1-Dioxothiomorpholin-4-ylmethyl)-phenyl]-[1,2,4]triazolo[1,5-a]pyridin-2-ylamine]: the half-inhibitory concentration (IC50) – broadly, the midpoint of a concentration-inhibition curve – was greater than 100 µM in experiment [1]; greater than 3 µM in experiment [2] (average, read-out: IC50 (average)); > 3.33 µM (3×) and 1.97 µM and 2.12 µM and 3.85 µM and 3.82 µM and 2.21 µM in experiment [2] (individual determinations, read-out: IC50).
